Literature values as cited in patent publication US7442682B2, “Transepithelial delivery of peptides with incretin hormone activities” (Nitto Denko Corporation, priority 2004, dated 2008).

Experiments:
fasting blood glucose = details: type 2 diabetes patients, pump infusion for 6 weeks, mainly within first week
β-cells = details: insulinotropic effect; read-out: half-maximal effective concentration on β-cells
[1] = in vivo

EC50 (β-cells) [nM] | half-life relative to exendin-4 [1] | Compound | lowering of fasting blood glucose (fasting blood glucose) [mM]
0.01 | – | GLP-1: glucagon-like peptide-1, human incretin hormone | 4 to 5
– | more than 10 fold | CCCCCCCCCCCCCCCC(=O)N[C@@H](CCC(=O)NCCCC[C@H](NC(=O)[C@H](C)NC(=O)[C@H](C)NC(=O)[C@H](CCC(N)=O)NC(=O)CNC(=O)[C@H](CCC(=O)O)NC(=O)[C@H](CC(C)C)NC(=O)[C@H](Cc1ccc(O)cc1)NC(=O)[C@H](CO)NC(=O)[C@H](CO)NC(=O)[C@@H](NC(=O)[C@H](CC(=O)O)NC(=O)[C@H](CO)NC(=O)[C@@H](NC(=O)[C@H](Cc1ccccc1)NC(=O)[C@@H](NC(=O)CNC(=O)[C@H](CCC(=O)O)NC(=O)[C@H](C)NC(=O)[C@@H](N)Cc1cnc[nH]1)[C@@H](C)O)[C@@H](C)O)C(C)C)C(=O)N[C@@H](CCC(=O)O)C(=O)N[C@@H](Cc1ccccc1)C(=O)N[C@H](C(=O)N[C@@H](C)C(=O)N[C@@H](Cc1c[nH]c2ccccc12)C(=O)N[C@@H](CC(C)C)C(=O)N[C@H](C(=O)N[C@@H](CCCNC(=N)N)C(=O)NCC(=O)N[C@@H](CCCNC(=N)N)C(=O)NCC(=O)O)C(C)C)[C@@H](C)CC)C(=O)O [Liraglutide] | –
